Here are results for 3 compounds from patent US20140081017A1, “Histone Deacetylase Inhibitors for Enhancing Activity of Antifungal Agents” (METHYLGENE INC., priority 2012, published 2014).

Assay [1] has as its system Candida parapsilosis. The note with it: range not explained, cited from earlier work.
Assay [2] deals with Candida albicans. In words: Minimal Inhibitory Concentration (MIC) assay, broth microdilution per CLSI.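 Further: two read times 24 hr and 48 hr of incubation.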 The settings on record: Candida albicans, read-out: Minimum Inhibitory Concentrations against Yeast Isolates, Candida albicans. The assay is classed as cell-based. In short, it runs like this: (§1)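 Yeasts incubated ~24-48 hr at 35°C in MOPS-buffered RPMI (0.165 M, pH 7.0) containing DMSO-dissolved compound, following CLSI microdilution. Inoculum: 0.5 McFarland, diluted 1:100. MIC read visually as lowest concentration inhibiting growth (prominent-decrease endpoint for fluconazole).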
(Dilution methods test growth across graded concentrations, often in twofold steps.)

The test system of assay [3] is Candida parapsilosis. Described as above. It is filed as cell-based. The note with it: Lodderomyces parapsilosis, read-out: Minimum Inhibitory Concentrations against Yeast Isolates, Candida parapsilosis. In short, it runs like this: as §1
A further assay relates to Candida glabrata. The assay is described as above. The assay is classed as cell-based. The note with it: Nakaseomyces glabratus, read-out: Minimum Inhibitory Concentrations against Yeast Isolates, Candida glabrata. In short, it runs like this: as §1
Assay [4] relates to C. glabrata. The note with it: based on a prior study / previously observed; cited from earlier work.
In assay [5] the test system is Candida albicans. The note with it: 48 hr; range not explained; cited from earlier work.
For assay [6], the system named is C. glabrata. The experiment in a line: Checkerboard FIC assay in combination with fluconazole (MIC alone and in combination, FICI). The assay is classed as cell-based, Candida glabrata. The note with it: for MIC: Nakaseomyces glabratus. In short, it runs like this:
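A fluconazole synergy checkerboard was run against C. glabrata in MOPS-buffered RPMI (pH 7.0) for about 48 h at 35 °C. Each agent was diluted 2-fold, with one row and one column holding each agent alone for MIC determination. FICI was calculated from these MICs, using a 0.5 McFarland inoculum diluted 1:100 per CLSI.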

[7] abbreviates: 24 hr reading (first value of cell 24 hr/48 hr).
Setting [8] is: 48 hr reading (second value of cell 24 hr/48 hr).
The mark [9] stands for this setting: C. glabrata, FICI calculated using a fluconazole MIC of 16 μg/mL.
[10] abbreviates: C. glabrata, FICI using a fluconazole MIC of 128 μg/mL.

Values after ≈ are worked out from the molar mass of the structure shown. Like-named read-outs stand apart in the source and are kept apart here.
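Wherever Minimum Inhibitory Concentrations against Yeast Isolates, Candida glabrata is given: two read times 24 hr and 48 hr of incubation.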
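Wherever Minimum Inhibitory Concentrations against Yeast Isolates, Candida parapsilosis is given: two read times 24 hr and 48 hr of incubation.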

Take `CC[C@H](C)C[C@H](C)CCCCCCCCC(=O)N[C@H]1C[C@@H](O)[C@@H](NCCN)NC(=O)[C@@H]2[C@@H](O)CCN2C(=O)[C@H]([C@H](O)CCN)NC(=O)[C@H]([C@H](O)[C@@H](O)c2ccc(O)cc2)NC(=O)[C@@H]2C[C@@H](O)CN2C(=O)[C@H]([C@@H](C)O)NC1=O` [Caspofungin, reference compound]: the “MIC range in parentheses below the comparator's MIC, Candida parapsilosis” value with Candida parapsilosis [1] (24 hr) was 0.25 to 1 µg/mL. The MIC in the assay with Candida albicans [2] (setting [7]) amounted to 0.06 µg/mL (≈ 0.0549 µM); in the assay with Candida albicans [2] (setting [8]) it was 0.06 µg/mL (≈ 0.0549 µM); in the assay with Candida parapsilosis [3] (setting [7]), 0.5 µg/mL (≈ 0.457 µM); with Candida parapsilosis [3] (setting [8]), 0.5 µg/mL (≈ 0.457 µM); in the assay with Candida glabrata (setting [7]), 0.12 µg/mL (≈ 0.11 µM); in the assay on Candida glabrata (setting [8]), 0.12 µg/mL (≈ 0.11 µM).

Regarding `OC(Cn1cncn1)(Cn1cncn1)c1ccc(F)cc1F` [Fluconazole, reference compound], the “MIC range in parentheses below the comparator's MIC, Candida parapsilosis” value was 0.5 to 4 µg/mL in the assay on Candida parapsilosis [1] (24 hr) and 1 to 4 µg/mL in the assay with Candida parapsilosis [1] (48 hr). In addition, the “MIC of fluconazole alone against both test isolates” value in the assay on C. glabrata [4] is greater than 64 µg/mL. For the same compound, the MIC in the assay with Candida albicans [2] (setting [7]) was 0.25 µg/mL (≈ 0.816 µM); in the assay on Candida albicans [2] (setting [8]), 1 µg/mL (≈ 3.27 µM); in the assay with Candida parapsilosis [3] (setting [7]), 2 µg/mL (≈ 6.53 µM); with Candida parapsilosis [3] (setting [8]) it was 4 µg/mL (≈ 13.1 µM); in the assay on Candida glabrata (setting [7]), 4 µg/mL (≈ 13.1 µM); in the assay with Candida glabrata (setting [8]), 8 µg/mL (≈ 26.1 µM). In addition, in the assay on C. glabrata [6] (C. glabrata, this study, checkerboard assay, read-out: MIC of fluconazole alone against both test isolates), the MIC is greater than 8 µg/mL. Further, the “MIC range in parentheses below the comparator's MIC, Candida albicans” value in the assay on Candida albicans [5] is reported as “(NA/0.25-1) ug/mL”.

As for `CN1CCN(CCS(=O)(=O)Nc2cccc(CCCCc3ccc(CC(=O)NO)cc3)c2)CC1` [Example 54, N-hydroxy-2-(4-(4-(3-(2-(4-methylpiperazin-1-yl)ethylsulfonamido)phenyl)butyl)phenyl)acetamide], the MIC in the assay on Candida albicans [2] (setting [7]) is greater than 64 µg/mL; in the assay on Candida albicans [2] (setting [8]), greater than 64 µg/mL; in the assay with Candida parapsilosis [3] (setting [7]), greater than 64 µg/mL; with Candida parapsilosis [3] (setting [8]), greater than 64 µg/mL; with Candida glabrata (setting [7]), 16 µg/mL (≈ 32.7 µM); in the assay on Candida glabrata (setting [8]), greater than 64 µg/mL. The MIC in the assay with C. glabrata [6] (MIC of the example compound alone against C. glabrata in the checkerboard assay, approximately 48 hr, read-out: Methylgene MIC) was greater than 16 µg/mL; in the assay on C. glabrata [6] (test compound alone, C. glabrata, approx. 48 hr at 35° C., read-out: Compound MIC), greater than 16 µg/mL. The “FICI of combination resulting in fluconazole MIC of: 2 ug/mL” value in the assay on C. glabrata [6] (setting [9]) is on record as 0.313. In addition, the “FICI of combination resulting in fluconazole MIC of: 4 ug/mL” value in the assay with C. glabrata [6] (setting [9]) was 0.250. In the assay with C. glabrata [6] (setting [9]), the “FICI of combination resulting in fluconazole MIC of: 8 ug/mL” value is recorded as 0.313. For the same compound, the “FICI of combination resulting in fluconazole MIC of: 2 ug/mL (value in parenthesis)” value in the assay on C. glabrata [6] (setting [10]) was found to be 0.266. For the same compound, the “FICI of combination resulting in fluconazole MIC of: 4 ug/mL (value in parenthesis)” value in the assay with C. glabrata [6] (setting [10]) stood at 0.156. Moreover, the “FICI of combination resulting in fluconazole MIC of: 8 ug/mL (value in parenthesis)” value in the assay with C. glabrata [6] (setting [10]) was determined as 0.125. Also, the “Concentration of Methylgene compound to synergize fluconazole MIC to 2 ug/mL” value with C. glabrata [6] (in combination with fluconazole, C. glabrata, fluconazole MIC lowered to 2 ug/mL) turned out to be 8 µg/mL. The “Concentration of Methylgene compound to synergize fluconazole MIC to 4 ug/mL” value with C. glabrata [6] (in combination with fluconazole, C. glabrata, fluconazole MIC lowered to 4 ug/mL) was found to be 4 µg/mL. For the same compound, the “Concentration of Methylgene compound to synergize fluconazole MIC to 8 ug/mL” value in the assay on C. glabrata [6] (in combination with fluconazole, C. glabrata, fluconazole MIC lowered to 8 ug/mL) worked out at 2 µg/mL.
